Tests used:
[1] = PANC 1 xenograft study: body and organ weights, haematology, histopathology
[2] = system: SK-N-MC neuroepithelioma cells; assay: Iron efflux assay (59Fe release from pre-labeled cells); format: cell-based, human; conditions: 25 μM chelator, 3 h at 37° C.
Description: The culture dishes were then placed on ice, the supernatant containing excess ^59Fe-Tf was aspirated and the cells washed 4 times with ice-cold PBS. […] After 3 h the culture dishes were again placed on ice, the media was collected in counting tubes and this provided a measurement of released ^59Fe. Ice-cold PBS (1 mL) was added to plates containing cells and cells were scraped from the plastic surface using a Teflon spatula and also collected in counting tubes. These tubes represent the intracellular ^59Fe content. Results are expressed as total ^59Fe released as a percentage of total ^59Fe present. Radioactivity was measured using a Wallac Wizard 3″ Gamma Counter (PerkinElmer, MA, USA).

[3] = system: CFPAC-1 pancreatic cancer cells; assay: MTT proliferation assay, CFPAC-1; format: cell-based; conditions: Homo sapiens; CFPAC-1, MTT, 72 h
Description: (§1) The pancreatic cancer cell lines, including MIAPaCa-2, PANC 1, CAPAN-2 and CFPAC-1 were a generous gift from Prof. Andrew Biankin (Garvan Institute, NSW, Australia). The MIAPaCa-2, PANC 1 and CFPAC-1 cell lines were grown in DMEM medium (Invitrogen) and CAPAN-2 cells were grown in McCoy's medium (Invitrogen). All media was supplemented with 10% (v/v) fetal calf serum (Invitrogen), 1% (v/v) non-essential amino acids (Invitrogen), 1% (v/v) sodium pyruvate (Invitrogen), 2 mM L-glutamine (Invitrogen), 100 μg/mL of streptomycin (Invitrogen), 100 U/ml penicillin (Invitrogen), and 0.28 μg/mL of fungizone.
(§2) To further examine the spectrum of anti-proliferative activity, Dp4cycH4mT was tested against pancreatic cancer in vitro, performing MTT proliferation assays with PANC 1, MIAPaCa-2, CFPAC-1 and CAPAN-2 pancreatic cancer cells. As a comparison, currently used treatments for pancreatic cancer including gemcitabine and 5-fluorouracil were also tested. The iron chelator, DFO, was included as a positive control.
(§3) Table 2A. Anti-proliferative activity of Dp4cycH4mT against pancreatic cancer cell lines. Growth and antiproliferative activity IC50 (μM) values of Dp4cycH4mT in a variety of pancreatic cell lines and in comparison to DFO and the clinically used drugs gemcitabine and 5-fluorouracil as determined by the MTT assay. Cells were seeded and allowed to attach to wells for 24 h and then incubated for 72 h at 37° C. with control medium or the chelators. Results are mean±SD (3 experiments).
as §3, with “2B.” for “2A.”, “IC90” for “Growth and antiproliferative activity IC50”

[4] = system: PANC 1 human pancreatic carcinoma; assay: PANC 1 xenograft in nude mice: tumour growth; format: in vivo, nude mice (BALBc nu/nu); conditions: Dp4cycH4mT 5 mg/kg/day i.v.
Description: FIG. 5). […] (5 mg/kg) or vehicle control.

cyclin D1 = assay: Western blot analysis, cyclin D1 levels; format: cell-based; conditions: MIAPaCa-2 cells
Description: (§4) Western analysis was performed via established protocols (Gao, J. and D. R. Richardson (2001). Blood 98: 842-50). The primary antibodies used were against NDRG1 (Abcam; UK), p21, cyclin D1, transferrin receptor 1 (TfR1; Santa Cruz, CA, USA) and β-actin (Sigma-Aldrich), with secondary HRP-conjugated goat and mouse antibodies (Sigma-Aldrich).
(§5) Dp4cycH4mT was examined to determine whether it could up-regulate NDRG-1 expression. To further evaluate the effect of the chelator Dp4cycH4mT on other key molecules involved in cell cycle progression, the expression of the cyclin-dependent kinase inhibitor, p21, as well as cyclin D1 in MIAPaCa-2 cells was also examined.

[5] = system: CAPAN-2 pancreatic cancer cells; assay: MTT proliferation assay, CAPAN-2; format: cell-based; conditions: Homo sapiens; CAPAN-2, MTT, 72 h
Description: as §1, §2, §3
as §3, with “2B.” for “2A.”, “IC90” for “Growth and antiproliferative activity IC50”

[6] = system: SK-N-MC neuroepithelioma cell line; assay: MTT anti-proliferative assay in SK-N-MC cells; format: cell-based, human; conditions: Homo sapiens, 72 h at 37° C., mean±SD (3 experiments)
Description: The cells were maintained in minimum essential media (MEM; Invitrogen, CA, USA) which contained 10% fetal calf serum (FCS; JRH Biosciences, Kansas, USA), 1% non-essential amino acids (Gibco, Victoria, Australia), 1% penicillin/streptomycin/glutamine (Gibco, VIC, Australia) and fungizone ([…]; Squibb Pharmaceuticals, Montreal, Canada).
The ability of the compounds to inhibit cellular proliferation was assessed initially in SK-N-MC cells by the MTT assay.
Table 1. […] Cells were seed and allowed to attach to wells for 24 h and then incubated for 72 h at 37° C. with control medium or the chelators.

NDRG1 = assay: Western blot analysis, NDRG1 expression; format: cell-based; conditions: MIAPaCa-2 cells
Description: as §4, §5

[7] = system: SK-N-MC neuroepithelioma cells; assay: Iron uptake assay (59Fe uptake from 59Fe-transferrin); format: cell-based, human; conditions: 25 μM chelator, 3 h at 37° C., 59Fe-Tf
Description: Cells were cultured in the same way as for the iron efflux experiments. […] At the end of the incubation the culture dishes were placed on ice, the media aspirated, and the cells washed 4 times with ice cold PBS. Protease (1 mL; 1 mg/mL; Sigma-Aldrich, NSW, Australia) solution was added to each plate and allowed to incubate on ice for 30 min. This facilitated the removal of membrane bound ^59Fe-Tf. Cells were then scraped from the plastic surface using a Teflon spatula and collected in Eppendorf tubes. These were centrifuged at 10000 rpm and 4° C. for 3 min. The supernatant was then transferred into counting tubes and the cell pellet resuspended in PBS before also being transferred into another set of counting tubes. Radioactivity was measured using a Wallac Wizard 3″ Gamma Counter (PerkinElmer, MA, USA). Results are expressed as average ^59Fe content of the cellular fraction as a percentage of the control value.

SMILES: CN(C(=S)NN=C(c1ccccn1)c1ccccn1)C1CCCCC1 [Dp4cycH4mT, di-2-pyridylketone 4-cyclohexyl-4-methyl-3-thiosemicarbazone]
- HCT ([1]; Dp4cycH4mT 5 mg/kg/day): 0.41 ± 0.01
- Hb ([1]; Dp4cycH4mT 5 mg/kg/day): 131.88 ± 4.31 g/L
- Platelets ([1]; Dp4cycH4mT 5 mg/kg/day): 1283 ± 160 10^9/L
- RBC ([1]; Dp4cycH4mT 5 mg/kg/day): 9.46 ± 0.31 × 10^12/L
- Reticulocytes ([1]; Dp4cycH4mT 5 mg/kg/day): 0.77 ± 0.08 × 10^12/L
- WBC ([1]; Dp4cycH4mT 5 mg/kg/day): 3.5 ± 0.34 × 10^9/L
- Body weight loss (% initial weight) ([1]; Dp4cycH4mT 5 mg/kg/day i.v.): 88.0 ± 6.5 % initial weight
- Brain weight ([1]; Dp4cycH4mT 5 mg/kg/day i.v.): 0.30 ± 0.01 g
- Heart weight ([1]; Dp4cycH4mT 5 mg/kg/day i.v.): 0.09 ± 0.01 g
- Kidney weight ([1]; Dp4cycH4mT 5 mg/kg/day i.v.): 0.17 ± 0.02 g
- Liver weight ([1]; Dp4cycH4mT 5 mg/kg/day i.v.): 0.80 ± 0.03 g
- Spleen weight ([1]; Dp4cycH4mT 5 mg/kg/day i.v.): 0.08 ± 0.01 g
- cellular 59Fe mobilised (59Fe released as percentage of total 59Fe) [2]: 22%
- IC50 [3]: 400 ± 200 nM
- IC90 [3]: 5400 ± 1100 nM
- Tumour weight [4]: 0.04 ± 0.01 g
- cyclin D1 levels (cyclin D1): significantly (p<0.05) reduced
- IC50 [5]: 40 ± 8 nM
- IC90 [5]: > 5000 nM
- IC50 [6]: 13 nM
- NDRG1 expression (NDRG1): significantly (p<0.01) up-regulated
- cellular 59Fe uptake (% of the control) [7]: 21%
